Results: the supplement of paper PMC10307832

What was measured:
Experiment in all cases: relative viability (nuclei count vs DMSO), 5 days (fraction); higher = more cells survive
HCC-366 = tested on: HCC-366
Summary of the method: (§1)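 Nuclei were stained with Hoechst during a one-step fixation (final 0.05% Triton X-100, 1% formaldehyde, 1 ug/ml Hoechst) carried out 5 days after dosing, then counted on 4× images. The cells, lung cancer lines in 1536-well plates, had been dosed by pin tool the day after seeding with one drug alone or a fixed anchor-drug dose plus five library-drug doses (not always all listed) in √10 steps. Relative viability is the nuclei count in treated wells divided by that in vehicle wells, and each value is the median of duplicate plates.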

LU99A = tested on: LU99A
Summary of the method: as §1

ABC-1 = tested on: ABC-1
Summary of the method: as §1

NCI-H2228 = tested on: NCI-H2228
Summary of the method: as §1

HCC-78 = tested on: HCC-78
Summary of the method: as §1

ChaGo-K-1 = tested on: ChaGo-K-1
Summary of the method: as §1

NCI-H1651 = tested on: NCI-H1651
Summary of the method: as §1

NCI-H2170 = tested on: NCI-H2170
Summary of the method: as §1

RERF-LC-KJ = tested on: RERF-LC-KJ
Summary of the method: as §1

LOU-NH91 = tested on: LOU-NH91
Summary of the method: as §1

NCI-H1755 = tested on: NCI-H1755
Summary of the method: as §1

LC-2-ad = tested on: LC-2-ad
Summary of the method: as §1

PC-3 [JPC-3] = tested on: PC-3 [JPC-3]
Summary of the method: as §1

CAL-12T = tested on: CAL-12T
Summary of the method: as §1

NCI-H1734 = tested on: NCI-H1734
Summary of the method: as §1

NCI-H1944 = tested on: NCI-H1944
Summary of the method: as §1

NCI-H1395 = tested on: NCI-H1395
Summary of the method: as §1

NCI-H1793 = tested on: NCI-H1793
Summary of the method: as §1

NCI-H460 = tested on: NCI-H460
Summary of the method: as §1

NCI-H2087 = tested on: NCI-H2087
Summary of the method: as §1

NCI-H2405 = tested on: NCI-H2405
Summary of the method: as §1

UMC-11 = tested on: UMC-11
Summary of the method: as §1

NCI-H3122 = tested on: NCI-H3122
Summary of the method: as §1

## NC(=O)Nc1cc(-c2cccc(F)c2)sc1C(=O)N[C@H]1CCCNC1 [AZD7762] + Cc1cc(Nc2cc(N3CCN(C)CC3)nc(Sc3ccc(NC(=O)C4CC4)cc3)n2)n[nH]1 [Tozasertib] (partner 0.1 µM)
HCC-366; first compound 0.01 µM
  relative viability: 0.144
HCC-366; first compound 0.03162 µM
  relative viability: 0.164
HCC-366; first compound 0.1 µM
  relative viability: 0.125
HCC-366; first compound 0.3162 µM
  relative viability: 0.119
HCC-366; first compound 1 µM
  relative viability: 0.0666
LU99A; first compound 0.01 µM
  relative viability: 0.318
LU99A; first compound 0.03162 µM
  relative viability: 0.279
LU99A; first compound 0.1 µM
  relative viability: 0.341
LU99A; first compound 0.3162 µM
  relative viability: 0.281
LU99A; first compound 1 µM
  relative viability: 0.218
ABC-1; first compound 0.01 µM
  relative viability: 0.18
ABC-1; first compound 0.03162 µM
  relative viability: 0.178
ABC-1; first compound 0.1 µM
  relative viability: 0.16
ABC-1; first compound 0.3162 µM
  relative viability: 0.115
ABC-1; first compound 1 µM
  relative viability: 0.111
NCI-H2228; first compound 0.01 µM
  relative viability: 0.274
NCI-H2228; first compound 0.03162 µM
  relative viability: 0.464
NCI-H2228; first compound 0.1 µM
  relative viability: 0.321
NCI-H2228; first compound 0.3162 µM
  relative viability: 0.245
NCI-H2228; first compound 1 µM
  relative viability: 0.121
HCC-78; first compound 0.01 µM
  relative viability: 0.539
HCC-78; first compound 0.03162 µM
  relative viability: 0.437
HCC-78; first compound 0.1 µM
  relative viability: 0.515
HCC-78; first compound 0.3162 µM
  relative viability: 0.44
HCC-78; first compound 1 µM
  relative viability: 0.404
ChaGo-K-1; first compound 0.01 µM
  relative viability: 0.215
ChaGo-K-1; first compound 0.03162 µM
  relative viability: 0.224
ChaGo-K-1; first compound 0.1 µM
  relative viability: 0.239
ChaGo-K-1; first compound 0.3162 µM
  relative viability: 0.197
ChaGo-K-1; first compound 1 µM
  relative viability: 0.227
NCI-H1651; first compound 0.01 µM
  relative viability: 0.788
NCI-H1651; first compound 0.03162 µM
  relative viability: 0.769
NCI-H1651; first compound 0.1 µM
  relative viability: 0.74
NCI-H1651; first compound 0.3162 µM
  relative viability: 0.395
NCI-H1651; first compound 1 µM
  relative viability: 0.191
NCI-H2170; first compound 0.01 µM
  relative viability: 0.781
NCI-H2170; first compound 0.03162 µM
  relative viability: 0.726
NCI-H2170; first compound 0.1 µM
  relative viability: 0.697
NCI-H2170; first compound 0.3162 µM
  relative viability: 0.788
NCI-H2170; first compound 1 µM
  relative viability: 0.726
RERF-LC-KJ; first compound 0.01 µM
  relative viability: 0.637
RERF-LC-KJ; first compound 0.03162 µM
  relative viability: 0.509
RERF-LC-KJ; first compound 0.1 µM
  relative viability: 0.422
RERF-LC-KJ; first compound 0.3162 µM
  relative viability: 0.453
RERF-LC-KJ; first compound 1 µM
  relative viability: 0.249
LOU-NH91; first compound 0.01 µM
  relative viability: 0.741
LOU-NH91; first compound 0.03162 µM
  relative viability: 0.701
LOU-NH91; first compound 0.1 µM
  relative viability: 0.665
LOU-NH91; first compound 0.3162 µM
  relative viability: 0.623
LOU-NH91; first compound 1 µM
  relative viability: 0.429
NCI-H1755; first compound 0.01 µM
  relative viability: 0.767
NCI-H1755; first compound 0.03162 µM
  relative viability: 0.572
NCI-H1755; first compound 0.1 µM
  relative viability: 0.687
NCI-H1755; first compound 0.3162 µM
  relative viability: 0.539
NCI-H1755; first compound 1 µM
  relative viability: 0.421
LC-2-ad; first compound 0.01 µM
  relative viability: 0.623
LC-2-ad; first compound 0.03162 µM
  relative viability: 0.55
LC-2-ad; first compound 0.1 µM
  relative viability: 0.449
LC-2-ad; first compound 0.3162 µM
  relative viability: 0.463
LC-2-ad; first compound 1 µM
  relative viability: 0.268
PC-3 [JPC-3]; first compound 0.01 µM
  relative viability: 0.859
PC-3 [JPC-3]; first compound 0.03162 µM
  relative viability: 0.891
PC-3 [JPC-3]; first compound 0.1 µM
  relative viability: 0.836
PC-3 [JPC-3]; first compound 0.3162 µM
  relative viability: 0.873
PC-3 [JPC-3]; first compound 1 µM
  relative viability: 0.85
CAL-12T; first compound 0.01 µM
  relative viability: 0.402
CAL-12T; first compound 0.03162 µM
  relative viability: 0.332
CAL-12T; first compound 0.1 µM
  relative viability: 0.353
CAL-12T; first compound 0.3162 µM
  relative viability: 0.168
CAL-12T; first compound 1 µM
  relative viability: 0.0999
NCI-H1734; first compound 0.01 µM
  relative viability: 0.263
NCI-H1734; first compound 0.03162 µM
  relative viability: 0.25
NCI-H1734; first compound 0.1 µM
  relative viability: 0.234
NCI-H1734; first compound 0.3162 µM
  relative viability: 0.22
NCI-H1734; first compound 1 µM
  relative viability: 0.199
NCI-H1944; first compound 0.01 µM
  relative viability: 0.253
NCI-H1944; first compound 0.03162 µM
  relative viability: 0.257
NCI-H1944; first compound 0.1 µM
  relative viability: 0.285
NCI-H1944; first compound 0.3162 µM
  relative viability: 0.301
NCI-H1944; first compound 1 µM
  relative viability: 0.248
NCI-H1395; first compound 0.01 µM
  relative viability: 0.771
NCI-H1395; first compound 0.03162 µM
  relative viability: 0.851
NCI-H1395; first compound 0.1 µM
  relative viability: 0.742
NCI-H1395; first compound 0.3162 µM
  relative viability: 0.673
NCI-H1395; first compound 1 µM
  relative viability: 0.386
NCI-H1793; first compound 0.01 µM
  relative viability: 0.395
NCI-H1793; first compound 0.03162 µM
  relative viability: 0.403
NCI-H1793; first compound 0.1 µM
  relative viability: 0.314
NCI-H1793; first compound 0.3162 µM
  relative viability: 0.374
NCI-H1793; first compound 1 µM
  relative viability: 0.198
NCI-H460; first compound 0.01 µM
  relative viability: 0.506
NCI-H460; first compound 0.03162 µM
  relative viability: 0.394
NCI-H460; first compound 0.1 µM
  relative viability: 0.444
NCI-H460; first compound 0.3162 µM
  relative viability: 0.357
NCI-H460; first compound 1 µM
  relative viability: 0.031
NCI-H2087; first compound 0.01 µM
  relative viability: 0.24
NCI-H2087; first compound 0.03162 µM
  relative viability: 0.266
NCI-H2087; first compound 0.1 µM
  relative viability: 0.323
NCI-H2087; first compound 0.3162 µM
  relative viability: 0.285
NCI-H2087; first compound 1 µM
  relative viability: 0.232
NCI-H2405; first compound 0.01 µM
  relative viability: 0.793
NCI-H2405; first compound 0.03162 µM
  relative viability: 0.832
NCI-H2405; first compound 0.1 µM
  relative viability: 0.783
NCI-H2405; first compound 0.3162 µM
  relative viability: 0.748
NCI-H2405; first compound 1 µM
  relative viability: 0.424
UMC-11; first compound 0.01 µM
  relative viability: 0.191
UMC-11; first compound 0.03162 µM
  relative viability: 0.216
UMC-11; first compound 0.1 µM
  relative viability: 0.202
UMC-11; first compound 0.3162 µM
  relative viability: 0.194
UMC-11; first compound 1 µM
  relative viability: 0.191
NCI-H3122; first compound 0.01 µM
  relative viability: 0.475
NCI-H3122; first compound 0.03162 µM
  relative viability: 0.412
NCI-H3122; first compound 0.1 µM
  relative viability: 0.402
NCI-H3122; first compound 0.3162 µM
  relative viability: 0.278
NCI-H3122; first compound 1 µM
  relative viability: 0.156
